Reference: the supplement of paper PMC13380429

What was measured:
Conditions in all cases: 72 h
[1] = test system: Caco-2; experiment: cell viability relative to DMSO; higher = less toxic
[2] = test system: Calu-3; experiment: as above
[3] = test system: HepG2; experiment: as above
[4] = test system: U2OS; experiment: as above
[5] = test system: Vero E6; experiment: as above
[6] = test system: Calu-3; experiment: relative viability EC50 (midpoint between 100% and the lowest measured viability); higher = less toxic
[7] = test system: Vero E6; experiment: as above
[8] = test system: Caco-2; experiment: drug sensitivity score (DSS) for viability; higher = more toxic; extreme values may be limits of the assay
[9] = test system: Calu-3; experiment: as above
[10] = test system: HepG2; experiment: as above
[11] = test system: U2OS; experiment: as above
[12] = test system: Vero E6; experiment: as above
[13] = test system: HepG2; experiment: relative viability EC50 (midpoint between 100% and the lowest measured viability); higher = less toxic
[14] = test system: U2OS; experiment: as above

Row | SMILES | cell viability ([1]; 1 nM) | cell viability ([1]; 10 nM) | cell viability ([1]; 100 nM) | cell viability ([1]; 1000 nM) | cell viability ([1]; 10000 nM) | cell viability ([2]; 1 nM) | cell viability ([2]; 10 nM) | cell viability ([2]; 100 nM) | cell viability ([2]; 1000 nM) | cell viability ([2]; 10000 nM) | cell viability ([3]; 1 nM) | cell viability ([3]; 10 nM) | cell viability ([3]; 100 nM) | cell viability ([3]; 1000 nM) | cell viability ([3]; 10000 nM) | cell viability ([4]; 1 nM) | cell viability ([4]; 10 nM) | cell viability ([4]; 100 nM) | cell viability ([4]; 1000 nM) | cell viability ([4]; 10000 nM) | cell viability ([5]; 1 nM) | cell viability ([5]; 10 nM) | cell viability ([5]; 100 nM) | cell viability ([5]; 1000 nM) | cell viability ([5]; 10000 nM) | relative viability EC50 [6] | relative viability EC50 [7] | drug sensitivity score [8] | drug sensitivity score [9] | drug sensitivity score [10] | drug sensitivity score [11] | drug sensitivity score [12] | relative viability EC50 [13] | relative viability EC50 [14]
1 | COc1cc(N2CCC(N3CCN(C)CC3)CC2)ccc1Nc1ncc(Cl)c(Nc2ccccc2P(C)(C)=O)n1 [brigatinib] | 94.9% | 97% | 92.8% | 94% | 73% | 105% | 102% | 106% | 89.5% | 35.3% | 98.1% | 92.8% | 105% | 81.7% | 55% | 97.2% | 99.5% | 97.4% | 98.4% | 64.8% | 98.7% | 102% | 101% | 94.5% | 78.5% | 1920 nM | > 10 µM | 1.8 | 5.3 | 4.8 | 1.9 | 1.4 |  | 
2 | Oc1ccc(Cl)cc1Cc1cc(Cl)ccc1O [dichlorophen] | 107% | 88.9% | 108% | 70.1% | 54.6% |  |  |  |  |  | 105% | 89.4% | 96.9% | 97.9% | 76.6% | 101% | 95.1% | 96.7% | 99.7% | 93.5% | 106% | 99.4% | 104% | 97.5% | 86.7% |  | > 10 µM | 5.9 |  | 1.1 | 0 | 0.3 | > 10000 nM | > 10 µM
3 | Cc1cc(C(=O)Nc2nc3cccc(Cl)c3n2[C@@H]2CCCCN(C(=O)/C=C/CN(C)C)C2)ccn1 [EGF816] | 95.5% | 94.3% | 98.1% | 93.7% | 72.3% | 102% | 95.9% | 86.9% | 51.6% | 24.6% | 107% | 100% | 96% | 94.5% | 32.1% | 101% | 98.9% | 99.3% | 98.4% | 77.3% | 104% | 106% | 102% | 82.1% | 36.8% | 512 nM | 1.45 µM | 2.1 | 10.8 | 4.6 | 1 | 6.2 | 2500 nM | > 10 µM
4 | CSCC[C@H](NC(=O)[C@H](CC(C)C)NC(=O)CNC(=O)[C@H](Cc1ccccc1)NC(=O)[C@H](Cc1ccccc1)NC(=O)[C@H](CCC(N)=O)NC(=O)[C@H](CCC(N)=O)NC(=O)[C@@H]1CCCN1C(=O)[C@H](CCCCN)NC(=O)[C@@H]1CCCN1C(=O)[C@@H](N)CCCN=C(N)N)C(N)=O [substance-P] |  |  |  |  |  | 103% | 98.4% | 102% | 96.5% | 95.6% | 88.1% | 96.3% | 100% | 107% | 105% | 99.5% | 97.2% | 96.2% | 96.7% | 98.2% | 102% | 97.5% | 103% | 102% | 99% | > 10000 nM | > 10 µM |  | 0 | 0 | 0 | 0 | > 10000 nM | > 10 µM
5 | CC(C)(O)[C@@H]1[C@H]2OC(=O)[C@@H]1[C@]1(O)C[C@H]3O[C@]34C(=O)O[C@H]2[C@]14C [picrotin] |  |  |  |  |  |  |  |  |  |  |  |  |  |  |  |  |  |  |  |  |  |  |  |  |  |  |  |  | 0 | 0 | 0 |  |  | 
6 | c1cc(Nc2cc(C3CC3)n[nH]2)nc(Nc2ccc3[nH]cnc3c2)n1 [APY-29] | 88.9% | 101% | 94.7% | 94.8% | 72.5% | 98.1% | 100% | 102% | 37.8% | 66.9% | 96.4% | 94.2% | 93.1% | 14.2% | 5.2% | 95.2% | 102% | 100% | 55.4% | 5.4% | 101% | 94.1% | 93.5% | 86.9% | 13.8% | 337 nM | 1.97 µM | 1.9 | 11.2 | 16.6 | 10.9 | 7 | 339 nM | 1.05 µM
7 | CC[C@H](C)C(=O)O[C@H]1C[C@H](O)C=C2C=C[C@H](C)[C@H](CC[C@@H](O)C[C@@H](O)CC(=O)O)[C@H]21 [PRAVASTATIN SODIUM] |  |  |  |  |  | 98.2% | 93.8% | 93.3% | 98.2% | 95.2% | 112% | 105% | 93% | 86.1% | 112% | 97.7% | 100% | 94.2% | 101% | 98.5% | 98.9% | 109% | 107% | 96.4% | 105% | […] | […] |  | 0 | 0 | 0 | 0 | […] | […]
